From patent EP0784620B1, “N-SUBSTITUTED PIPERIDINYL BICYCLIC BENZOATE DERIVATIVES” (JANSSEN PHARMACEUTICA N.V., priority 1994, dated 1996) come the findings set out here.

Molecules are shown by their SMILES. Structures can show the parent of a compound that is named as a salt. Bounds are passed on as bounds.

For the assay, the system named is ileum segments. As to the kind of experiment: Guinea Pig Ileum Coaxial Stimulation. The format is tissue-based. The following applies: Cavia porcellus, 5 min; concentration of 3.10^-9 M; five minutes after administration versus before; submaximal electrical stimulation (80% of maximal response); read-out: increase of the amplitude of the twitch response. Here is the method: Example 10 : Guinea Pig Ileum Coaxial Stimulation. Dunkin Hartley guinea-pigs of both sexes (body weight ± 500 g) were killed by decapitation. The ileum was removed and cleansed with warmed and oxygenated Krebs-Henseleit solution. Non-terminal, intact ileum segments, 4.5 cm long, of the guinea pig were vertically suspended with a preload of 1 g in 100 ml Krebs-Henseleit solution (37.5°C), gassed with a mixture of 95% O2 and 5% CO2. Transmural excitation was applied over the whole length of the ileum segment by means of two platinum electrodes, the anode threaded through the lumen of the ileum, the cathode in the bathing solution. The preparation was excited with single rectangular […] [1 msec; 0.1 Hz; submaximal response (current leading to 80% of maximal reponse)] from a progammable stimulator. Contractions were measured isometrically. During the stabilization period of 30 min, the strips were repeatedly stretched to a tension of 2g, in order to obtain a steady state tension of lg. Before starting the electrical stimulation, a cumulative dose response curve of acetylcholine was given. The electrical stimulation was started at supramaximal current to determine the maximal amplitude of the twitch responses. When these responses were stable, a submaximal stimulation to obtain 80% of the maximal responses was given until the twitch responses were constant for at least 15 min, whereafter a single dose of the test compound was added to the bath fluid. The amplitude of the twitch response five minutes after the administration of the test compound is compared with the amplitude before the administration of the test compound.
`Cc1nccnc1NCCN1CCC(OC(=O)c2cc(Cl)c(N)c3c2OCC3)CC1` [Compound 39, 1-[2-[(3-methyl-2-pyrazinyl)amino]ethyl]-4-piperidinyl 4-amino-5-chloro-2,3-dihydro-7-benzofurancarboxylate]: the activation at 0.003 µM was above 5%.

For `COCCCN1CCC(OC(=O)c2cc(Cl)c(N)c3c2OCC3)CC1` [Compound 15, 1-(3-methoxypropyl)-4-piperidinyl 4-amino-5-chloro-2,3-dihydro-7-benzofuran-carboxylate], the activation at 0.003 µM was above 5%. In the case of `Nc1c(Cl)cc(C(=O)OC2CCN(CCCC3CCCO3)CC2)c2c1CCO2` (racemic) [Compound 35], the activation at 0.003 µM was above 5%. The same measure for `Nc1c(Cl)cc(C(=O)OC2CCN(CCOCCO)CC2)c2c1CCO2` [Compound 14, 1-[2-(2-hydroxyethoxy)ethyl]-4-piperidinyl 4-amino-5-chloro-2,3-dihydro-7-benzo-furancarboxylate]: above 5%. In the case of `COC1CN(CCCC2(C)OCCO2)CCC1OC(=O)c1cc(Cl)c(N)c2c1OCC2` (stereo not shown) [Compound 46], the activation at 0.003 µM was above 5%.

Take `CCOC(=O)CCCN1CCC(OC(=O)c2cc(Cl)c(N)c3c2OCC3)CC1` [Compound 33, ethyl 4-[[(4-amino-5-chloro-2,3-dihydro-7-benzofuranyl)carbonyl]oxy]-1-piperidinebutanoate]: the activation at 0.003 µM was above 5%.

For the compound `CC1(CCCN2CCC(OC(=O)c3cc(Cl)c(N)c4c3OCC4)CC2)OCCO1` [Compound 6, 1-[3-(2-methyl-1,3-dioxolan-2-yl)propyl]-4-piperidinyl 4-amino-5-chloro-2,3-dihydro-7-benzofurancarboxylate], the activation at 0.003 µM is above 5%.

In the case of `Nc1c(Cl)cc(C(=O)OC2CCN(CC3CC3)CC2)c2c1CCO2` [Compound 34], the activation at 0.003 µM is above 5%. Regarding `Nc1c(Cl)cc(C(=O)OC2CCN(CCC3CCCO3)CC2)c2c1CCO2` (racemic) [Compound 36, 1-[2-(tetrahydro-2-furanyl)ethyl]-4-piperidinyl 4-amino-5-chloro-2,3-dihydro-7-benzofurancarboxylate], the activation at 0.003 µM is above 5%. Consider `CCN1CCC(OC(=O)c2cc(Cl)c(N)c3c2OC(C)(C)C3)CC1` [Compound 16], for which the activation at 0.003 µM was above 5%.

Take `Nc1c(Cl)cc(C(=O)OC2CCN(CCCn3nc(Cl)ccc3=O)CC2)c2c1CCO2` [Compound 7, 1-[3-(3-chloro-6-oxo-1(6H)-pyridazinyl)propyl]-4-piperidinyl 4-amino-5-chloro-2,3-dihydro-7-benzofurancarboxylate]: the activation at 0.003 µM was above 5%. Then `CCn1c(=O)n(CCN2CCC(OC(=O)c3cc(Cl)c(N)c4c3OCC4)CC2)c2ccccc21` [Compound 1], with above 5%; and `CC(C)OCCCN1CCC(OC(=O)c2cc(Cl)c(N)c3c2OCC3)CC1` [Compound 4, 1-[3-(1-methylethoxy)propyl]-4-piperidinyl 4-amino-5-chloro-2,3-dihydro-7-benzofurancarboxylate monohydrochloride], with above 5%; and `CC(=O)CCCN1CCC(OC(=O)c2cc(Cl)c(N)c3c2OCC3)CC1` [Compound 8, 1-(4-oxopentyl)-4-piperidinyl 4-amino-5-chloro-2,3-dihydro-7-benzofurancarboxylate], with above 5%. Regarding `COC1CN(CCCn2nc(Cl)ccc2=O)CCC1OC(=O)c1cc(Cl)c(N)c2c1OCC2` (stereo not shown) [Compound 50], the activation at 0.003 µM was above 5%. As for `CC1(C)CCc2c(N)c(Cl)cc(C(=O)OC3CCN(CC4CCCO4)CC3)c2O1` (racemic) [Compound 32, 1-[(tetrahydro-2-furanyl)methyl]-4-piperidinyl 5-amino-6-chloro-3,4-dihydro-2,2-dimethyl-2H-1-benzopyran-8-carboxylate], the activation at 0.003 µM is above 5%.
